Measurements from paper PMC12092823 (Scientific Reports, 2025).
Values belong to the compound of their own block, whether it stands above or below them.

Assays:
[1] = system: α-glucosidase; assay: In vitro α-glucosidase inhibition assay; type: biochemical, yeast; settings: for anti-α-glucosidase activity in words: in comparison to acarbose or compound 14b; for folds more active than acarbose against α-glucosidase: versus acarbose
[2] = system: α-glucosidase; assay: Kinetic study; type: biochemical, yeast; settings: Lineweaver–Burk plots

- anti-α-glucosidase activity in words [1]: moderate
Compound: COc1ccc(NC(=O)Cn2cc(CNC(=O)c3cc4c([nH]c5ccccc54)c(-c4ccccc4)n3)nn2)c([N+](=O)[O-])c1 [Compound 14e, N-((1-(2-((4-methoxy-2-nitrophenyl)amino)-2-oxoethyl)-1 H-1,2,3-triazol-4-yl)methyl)-1-phenyl-9 H-pyrido[3,4-b]indole-3-carboxamide]

- decrease of anti-α-glucosidase activity relative to compound 14b ([1]; versus compound 14b): 10 folds
Compound: Cc1cc([N+](=O)[O-])ccc1NC(=O)Cn1cc(CNC(=O)c2cc3c([nH]c4ccccc43)c(-c3ccccc3)n2)nn1 [Compound 14c, N-((1-(2-((2-methyl-4-nitrophenyl)amino)-2-oxoethyl)-1 H-1,2,3-triazol-4-yl)methyl)-1-phenyl-9 H-pyrido[3,4-b]indole-3-carboxamide]

- anti-α-glucosidase activity in words [1]: good
Compound: O=C(Cn1cc(CNC(=O)c2cc3c([nH]c4ccccc43)c(-c3ccc(Cl)cc3)n2)nn1)Nc1cccc(Cl)c1 [Compound 14n, 1-(4-chlorophenyl)-N-((1-(2-((3-chlorophenyl)amino)-2-oxoethyl)-1 H-1,2,3-triazol-4-yl)methyl)-9 H-pyrido[3,4-b]indole-3-carboxamide]

More lines, now with the values behind:

Compound: COc1ccc(-c2nc(C(=O)NCc3cn(CC(=O)Nc4cccc(Cl)c4)nn3)cc3c2[nH]c2ccccc23)cc1 [Compound 14i, N-((1-(2-((3-chlorophenyl)amino)-2-oxoethyl)-1 H-1,2,3-triazol-4-yl)methyl)-1-(4-methoxyphenyl)-9 H-pyrido[3,4-b]indole-3-carboxamide]
- anti-α-glucosidase activity in words [1]: significant inhibitor

Compound: Cc1ccccc1NC(=O)Cn1cc(CNC(=O)c2cc3c([nH]c4ccccc43)c(-c3ccc(Cl)cc3)n2)nn1 [Compound 14k, 1-(4-chlorophenyl)-N-((1-(2-oxo-2-(o-tolylamino)ethyl)-1 H-1,2,3-triazol-4-yl)methyl)-9 H-pyrido[3,4-b]indole-3-carboxamide]
- inhibitory activity diminished relative to compound 14 L ([1]; versus compound 14 L): 3 folds

Compound: O=C(Cn1cc(CNC(=O)c2cc3c([nH]c4ccccc43)c(-c3ccc(Cl)cc3)n2)nn1)Nc1ccccc1F [14 m, 1-(4-chlorophenyl)-N-((1-(2-((2-fluorophenyl)amino)-2-oxoethyl)-1 H-1,2,3-triazol-4-yl)methyl)-9 H-pyrido[3,4-b]indole-3-carboxamide]
- folds more active than acarbose against α-glucosidase [1]: around 5 folds

Compound: Cc1ccccc1NC(=O)Cn1cc(CNC(=O)c2cc3c([nH]c4ccccc43)c(-c3ccccc3)n2)nn1 [Compound 14b, N-((1-(2-oxo-2-(o-tolylamino)ethyl)-1 H-1,2,3-triazol-4-yl)methyl)-1-phenyl-9 H-pyrido[3,4-b]indole-3-carboxamide]
- effect of increasing inhibitor concentration on Km and Vmax [2]: decrease in Km and Vmax
- type of α-glucosidase inhibition [2]: uncompetitive
- anti-α-glucosidase activity in words [1]: significant

Compound: O=C(Cn1cc(CNC(=O)c2cc3c([nH]c4ccccc43)c(-c3ccc(Cl)cc3)n2)nn1)Nc1ccccc1 [Compound 14j, 1-(4-chlorophenyl)-N-((1-(2-oxo-2-(phenylamino)ethyl)-1 H-1,2,3-triazol-4-yl)methyl)-9 H-pyrido[3,4-b]indole-3-carboxamide]
- folds more active than acarbose against α-glucosidase [1]: around 5 folds

Compound: Cc1cc([N+](=O)[O-])ccc1NC(=O)Cn1cc(CNC(=O)c2cc3c([nH]c4ccccc43)c(-c3ccc(Cl)cc3)n2)nn1 [14 L, 1-(4-chlorophenyl)-N-((1-(2-((2-methyl-4-nitrophenyl)amino)-2-oxoethyl)-1 H-1,2,3-triazol-4-yl)methyl)-9 H-pyrido[3,4-b]indole-3-carboxamide]
- anti-α-glucosidase activity in words [1]: good
